Tested on: purified human astrocytes
Experiment: Calcium imaging of purified human astrocytes (Fluo-4 AM) after ATP or glutamate stimulation
Type: cell-based
Settings: for calcium response (increased intracellular calcium concentrations): 30 nM-670 μM
Method: Therefore, we performed calcium imaging on purified human astrocytes after loading cells grown in vitro with the calcium sensitive dye Fluo-4 AM.
Calcium imaging. Purified human astrocytes were plated at 100,000 cells/imaging chamber (MatTek, P35GC-1.0-14-C) coated with poly-d-lysine. Cells were grown for at least 5 days before imaging. Cells were incubated for 15 minutes with 2 μM Fluo 4 AM (Invitrogen, F-14201) and then washed 3 times with PBS and replaced with 1.5 ml of growth medium per chamber. The cells were then let to recover from mechanical stimulation for 3 minutes and then imaged in a humidified, temperature-controlled chamber with a 40× oil objective. Images were taken at 0.7 s intervals and analyzed with ImageJ.

Compound | calcium response (increased intracellular calcium concentrations) (fetal human astrocytes) | temporal pattern of calcium response (postnatal human astrocytes) | calcium response (increased intracellular calcium concentrations) (postnatal human astrocytes) | time for intracellular calcium to decrease to baseline levels (postnatal human astrocytes, independent of concentration)
Nc1ncnc2c1ncn2[C@@H]1O[C@H](COP(=O)(O)OP(=O)(O)OP(=O)(O)O)[C@@H](O)[C@H]1O [ATP] | responded | asynchronous oscillatory response | responded to both | –
N[C@@H](CCC(=O)O)C(=O)O [glutamate] | – | synchronous non-oscillatory response | responded to both | ≤ 10 s

Reference: US10093898B2, “Purification of functional human astrocytes” (The Board of Trustees of the Leland Stanford Junior …, priority 2015, dated 2018)
